Test results as given in patent US20010051179A1, “METHOD FOR PREVENTING THE SPREAD OF INFECTIOUS MICROORGANISMS USING CYANOACRYLATE” (priority 1996, published 2001).

Key:
Herpes Simplex virus [1] = test: Twice-daily coating of open Herpes Simplex lip sores with cyanoacrylate (case reports); type: in vivo, human
Source text: A person had open sores on their lower lip from which a clear liquid was exuding. The sores were diagnosed as resulting from the Herpes Simplex virus. Their initial office treatment consisted of swabbing the open sores with n-butyl-cyanoacrylate using a surgical swab until the sores and surrounding tissue were completely covered. They were given a supply of n-butyl-cyanoacrylate and surgical paddles for self-application and instructed on their use. They were cautioned not to close their lips or press them together after applying the n-butyl-cyanoacrylate for two to three minutes so that the coating over the sores would be completely dry.
An individual had open sores on their lip from which a clear liquid was exuding. The sores were diagnosed as Herpes Simplex virus.
An individual had open sores on their lip from which a clear liquid was exuding. The sores were diagnosed as resulting from the Herpes Simplex virus. They were instructed to coat the sores with 2 acetyl cyanoacrylate using a surgical swab until the sores and surrounding tissue were completely covered.
An individual had open sores on their lip from which a clear liquid was exuding. The sores were diagnosed as resulting from the Herpes Simplex virus. They were instructed to coat the sores with octyl-cyanoacrylate using a surgical swab until the sores and surrounding tissue were completely covered.

Herpes Simplex virus [2] = test: Twice-daily coating of a Herpes Simplex prodrome on the lip with cyanoacrylate (case report); type: in vivo, human; settings: itching prodrome on lower lip, topical coating twice daily for three days
Source text: Before the open Herpes sore forms, an area where the sore will form becomes sensitive and itchy, and is known as a prodrome. The application of cyanoacrylate to the prodrome prevents the sore from forming. The cyanoacrylate can also be applied in the same manner as previously described to the prodrome.
A person had itching on their lower lip. The itching was diagnosed as resulting from a prodrome of the Herpes Simplex virus. Their initial office treatment consisted of being told to swab the prodrome with n-butyl-cyanoacrylate using a surgical swab until the prodrome and surrounding tissue were completely covered. They were given a supply of n-butyl-cyanoacrylate and surgical paddles for self-application and instructed on their use.

[3] = topical coating twice daily for three days

Molecule	state of the open sores (exudation of clear liquid) at end of treatment (Herpes Simplex virus [1]; [3])	outcome of prodrome (sore formation) (Herpes Simplex virus [2])	state of the open sores (exudation of clear liquid) at end of treatment (Herpes Simplex virus [1]; topical coating twice daily for several days)
C=C(C#N)C(=O)OCCCC [n-butyl-cyanoacrylate]	no longer exudating	prodrome disappeared and no sores formed or exuded	–
C=C(C#N)C(=O)OCCCCCCCC [octyl-cyanoacrylate]	no longer exuding	–	–
2 acetyl cyanoacrylate	no longer exuding	–	–
C=C(C#N)C(=O)OCC [ethyl cyanoacrylate]	–	–	no longer exudating
